Source: publication PMC10454375, “Cell-Impermeable Inhibitors Confirm That Intracellular Human Transglutaminase 2 Is Responsible for the Transglutaminase-Associated Cancer Phenotype” (International Journal of Molecular Sciences, 2023)
Peptide text beside a SMILES is read from it. * marks the point of attachment. X1 = C=CC(=O)NCCCCC(NC(=O)OCc1ccccc1)C(=O)N1CCN(C(=O)C(CCC(=O)*)NC(=O)c2cccc3ccccc23)CC1

Biological target: T1, TG3a (Homo sapiens, UniProt Q08188)
T1 construct: purchased Zedira GmbH (Darmstadt, Germany)
T1 sequence (Q08188 2-467 limits assumed): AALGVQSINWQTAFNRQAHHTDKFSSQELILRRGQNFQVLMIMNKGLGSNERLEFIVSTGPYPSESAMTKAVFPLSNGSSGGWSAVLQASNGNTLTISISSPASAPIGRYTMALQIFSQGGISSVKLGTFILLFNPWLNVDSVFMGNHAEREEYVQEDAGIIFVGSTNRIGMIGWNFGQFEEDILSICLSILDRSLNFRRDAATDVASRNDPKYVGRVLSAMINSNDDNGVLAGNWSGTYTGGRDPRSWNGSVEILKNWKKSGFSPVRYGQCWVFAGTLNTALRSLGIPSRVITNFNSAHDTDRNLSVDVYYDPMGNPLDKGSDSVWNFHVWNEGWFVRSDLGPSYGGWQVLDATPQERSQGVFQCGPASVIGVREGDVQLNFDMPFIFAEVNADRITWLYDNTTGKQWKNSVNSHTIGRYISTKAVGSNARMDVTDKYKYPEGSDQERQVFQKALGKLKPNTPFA
T1 sequence (Q08188 468-693 partner limits assumed): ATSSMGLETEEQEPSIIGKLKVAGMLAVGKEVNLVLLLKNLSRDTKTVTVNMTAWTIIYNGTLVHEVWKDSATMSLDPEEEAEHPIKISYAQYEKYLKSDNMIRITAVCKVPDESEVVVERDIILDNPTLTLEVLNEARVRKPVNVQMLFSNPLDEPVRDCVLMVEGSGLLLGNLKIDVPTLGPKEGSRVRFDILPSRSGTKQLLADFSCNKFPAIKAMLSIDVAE
Experiment: TGase isozyme selectivity, TG3a with A101 substrate
Format: biochemical
Settings: [I]/α identical to that of the TG2 assay
Text: In the development of probes for TGases, isozyme selectivity is always a significant challenge. Since the catalytic machinery of the active sites of all TGases features a conserved Gly-Gln-Cys-Trp-Val sequence, selectivity for one isozyme over the others requires exploitation of slight differences in the protein substrate binding sites. In order to assess the isozyme selectivity of our cell-impermeable inhibitors, TG2 and four other therapeutically relevant TGases (Factor XIII, TG1, TG3, and TG6) were exposed to a concentration of inhibitor representing the same apparent competition with respect to the assay substrate (AL5 [38] or A101 [42, 43]). In other words, both the substrate and inhibitor concentrations were varied so that the [I]/α values were identical. […] This provides confidence that in further applications, these cell-impermeable inhibitors will selectively target TG2 over other transglutaminases.
To monitor the activity of TG3a and TG6, a FRET-quenched substrate A101 (Zedira Gmbh) was used. […] The isopeptidase activity of the respective TGase was then monitored at Ex/Em = 313/418 nm with a BioTek Synergy 4 plate reader at 25 °C. […]

| Compound | inhibition of TG3 |
| --- | --- |
| C=CC(=O)NCCCCC(NC(=O)OCc1ccccc1)C(=O)N1CCN(C(=O)C(CCC(=O)NCC(=O)NCC(=O)NCC(=O)NC(CC(=O)O)C(=O)NC(CC(=O)O)C(=O)NC(CC(=O)O)C(=O)O)NC(=O)c2cccc3ccccc23)CC1 (centres unmarked) [Compound 18] (X1-GGGDDD-OH; configuration not given here) | no detectable inhibition |
| C=CC(=O)NCCCCC(NC(=O)OCc1ccccc1)C(=O)N1CCN(C(=O)C(CCC(=O)NCCCCCC(=O)NC(CC(=O)O)C(=O)NC(CC(=O)O)C(=O)NC(CC(=O)O)C(=O)O)NC(=O)c2cccc3ccccc23)CC1 (centres unmarked) [Compound 17] | no detectable inhibition |
